Test results taken from patent US20100041089A1, “IMPROVED METHOD FOR DETECTING CHEMICAL […]” (priority 2006, published 2010).

Test system: yeast genes (expressed mRNA)
Assay: DNA chip measurement of expressed mRNA of yeast genes after culture with a toxic chemical substance
Type: cell-based, Saccharomyces cerevisiae S288C
Method: Yeast (Saccharomyces cerevisiae S288C (a SUC2mal mel gap2 CUP1)) were cultured at 25° C. on YPD medium (yeast extract 1%, polypeptone 2%, glucose 2%). One of toxic chemical substances was added to the cell at logarithmic growth phase, and the cell was further cultured for two hours. Cell was cultured without any chemical substance in the same condition, and was used as a control. Concentrations of the chemical substances were defined to inhibit the growth of the yeast but not lead to death.
After the completion of cultivation, the culture was centrifuged to collect the cells. To the cells, sodium acetate buffer (50 mM sodium acetate, 10 mM EDTA, 1% SDS) was added, and the mixture was shaken at 65° C. for five minutes, followed by returning to room temperature, and obtaining the supernatant, which procedure was repeated two times. To the supernatant, ½ amount of a solution of phenol/chloroform (1:1) was added, and the mixture was centrifuged to give a supernatant, an equal amount of chloroform was added, and the mixture was centrifuged to give a supernatant. To the supernatant, an equal amount of isopropanol containing 0.3 M sodium acetate was added, and the mixture was allowed to stand at room temperature for 30 minutes, after which the mixture was centrifuged to give sediment of the whole RNAs. Seventy % ethanol was added to the sediment, and the mixture was again centrifuged to give sediment, which was then dried and dissolved in water. mRNA was isolated from the whole RNAs as followings. In view of the fact that a poly A chain is attached to the 3′ terminus of mRNA, a polynucleotide having a poly T structure which was immobilized on the surface of latex beads was used to trap the mRNA, and then the mRNA was washed and eluted with spine column (Oligotex-dT30<Super>mRNA Purification Kit, Takara). Reverse transcription of the mRNA was conducted with a reverse transcriptase (Super Script II Reverse Transcriptase; catalogue No. 18064-014, GibcoBRL) using fluorescence-labeled nucleotides to give cDNAs that were introduced with Cy3-dUTP or Cy5-dUTP during the reverse transcription.
The labeled cDNAs were dissolved in TE buffer (10 mM Tris-HCl/1 mM EDTA, pH 8.0), and the solution was dropped on the DNA chip containing the whole genes of yeast (DNA Chip Research Inc. Japan) so that the cDNAs were hybridized on the DNA chip at 65° C. for over 12 hours. The fluoresces intensity of the DNA chip was read with a scanner, and the ratio relative to the fluorescence intensity resulting from the absence of chemical substance was estimated as the following, which is shown in Tables 1 to 9.
In the Tables, “Intensity” indicated in the rightmost column is a value of the level of expressed mRNA of each gene in control cells as divided by the average level of the expressions of the whole genes. A gene of which mRNA level is lower in control, and is higher in cases of addition of chemical substance, is especially useful in the detection of toxic substances.
Here, when a ratio of an amount of mRNA expressed in the presence of the chemical substance to an amount of mRNA expressed in the absence of the chemical substance is two or more, then it is considered significant.

O=[N+]([O-])c1cc[n+]([O-])c2ccccc12 [(5), 4-Nitroquinoline-N-oxide]
The level of expressed mRNA in the presence of chemical substance/The level of expressed mRNA in the absence of chemical substance (yeast gene YKL086W, cultured two hours with substance): 0.8 | The level of expressed mRNA in the presence of chemical substance/The level of expressed mRNA in the absence of chemical substance (yeast gene YKL139W): 2.8 | The level of expressed mRNA in the presence of chemical substance/The level of expressed mRNA in the absence of chemical substance (yeast gene YKL151C, cultured two hours with substance): 1.0 | The level of expressed mRNA in the presence of chemical substance/The level of expressed mRNA in the absence of chemical substance (yeast gene YKL153W, cultured two hours with substance): 1.0 | The level of expressed mRNA in the presence of chemical substance/The level of expressed mRNA in the absence of chemical substance (yeast gene YKL195W, cultured two hours with substance): 1.9 | The level of expressed mRNA in the presence of chemical substance/The level of expressed mRNA in the absence of chemical substance (yeast gene YKR091W, cultured two hours with substance): 1.6 | The level of expressed mRNA in the presence of chemical substance/The level of expressed mRNA in the absence of chemical substance (yeast gene YLR054C, cultured two hours with substance): 1.3 | The level of expressed mRNA in the presence of chemical substance/The level of expressed mRNA in the absence of chemical substance (yeast gene YLR149C, cultured two hours with substance): 0.8 | The level of expressed mRNA in the presence of chemical substance/The level of expressed mRNA in the absence of chemical substance (yeast gene YLR152C, cultured two hours with substance): 1.1 | The level of expressed mRNA in the presence of chemical substance/The level of expressed mRNA in the absence of chemical substance (yeast gene YLR194C, cultured two hours with substance): 1.0 | The level of expressed mRNA in the presence of chemical substance/The level of expressed mRNA in the absence of chemical substance (yeast gene YLR324W, cultured two hours with substance): 1.3 | The level of expressed mRNA in the presence of chemical substance/The level of expressed mRNA in the absence of chemical substance (yeast gene YLR350W, cultured two hours with substance): 0.8 | The level of expressed mRNA in the presence of chemical substance/The level of expressed mRNA in the absence of chemical substance (yeast gene YLR387C, cultured two hours with substance): 1.3 | The level of expressed mRNA in the presence of chemical substance/The level of expressed mRNA in the absence of chemical substance (yeast gene YLR388W): 2.5 | The level of expressed mRNA in the presence of chemical substance/The level of expressed mRNA in the absence of chemical substance (yeast gene YLR460C, cultured two hours with substance): 1.3 | The level of expressed mRNA in the presence of chemical substance/The level of expressed mRNA in the absence of chemical substance (yeast gene YML107C, cultured two hours with the substance): 2.2 | The level of expressed mRNA in the presence of chemical substance/The level of expressed mRNA in the absence of chemical substance (yeast gene YML117W, cultured two hours with substance): 0.8 | The level of expressed mRNA in the presence of chemical substance/The level of expressed mRNA in the absence of chemical substance (yeast gene YMR009W, cultured two hours with substance): 1.9 | The level of expressed mRNA in the presence of chemical substance/The level of expressed mRNA in the absence of chemical substance (yeast gene YMR067C, cultured two hours with substance): 1.1 | The level of expressed mRNA in the presence of chemical substance/The level of expressed mRNA in the absence of chemical substance (yeast gene YMR090W, cultured two hours with substance): 0.7 | The level of expressed mRNA in the presence of chemical substance/The level of expressed mRNA in the absence of chemical substance (yeast gene YMR095C, cultured two hours with substance): 0.9 | The level of expressed mRNA in the presence of chemical substance/The level of expressed mRNA in the absence of chemical substance (yeast gene YMR097C, cultured two hours with substance): 0.7 | The level of expressed mRNA in the presence of chemical substance/The level of expressed mRNA in the absence of chemical substance (yeast gene YMR102C, cultured two hours with substance): 1.2 | The level of expressed mRNA in the presence of chemical substance/The level of expressed mRNA in the absence of chemical substance (yeast gene YMR107W, cultured two hours with substance): 1.1 | The level of expressed mRNA in the presence of chemical substance/The level of expressed mRNA in the absence of chemical substance (yeast gene YMR180C, cultured two hours with substance): 1.0 | The level of expressed mRNA in the presence of chemical substance/The level of expressed mRNA in the absence of chemical substance (yeast gene YMR184W, cultured two hours with substance): 0.8 | The level of expressed mRNA in the presence of chemical substance/The level of expressed mRNA in the absence of chemical substance (yeast gene YMR191W, cultured two hours with substance): 1.5 | The level of expressed mRNA in the presence of chemical substance/The level of expressed mRNA in the absence of chemical substance (yeast gene YMR295C, cultured two hours with substance): 1.4 | The level of expressed mRNA in the presence of chemical substance/The level of expressed mRNA in the absence of chemical substance (yeast gene YMR316W, cultured two hours with substance): 1.1 | The level of expressed mRNA in the presence of chemical substance/The level of expressed mRNA in the absence of chemical substance (yeast gene YNL044W, cultured two hours with substance): 1.2 | The level of expressed mRNA in the presence of chemical substance/The level of expressed mRNA in the absence of chemical substance (yeast gene YNL074C, cultured two hours with substance): 1.3 | The level of expressed mRNA in the presence of chemical substance/The level of expressed mRNA in the absence of chemical substance (yeast gene YNL092W, cultured two hours with substance): 0.9 | The level of expressed mRNA in the presence of chemical substance/The level of expressed mRNA in the absence of chemical substance (yeast gene YNL115C, cultured two hours with substance): 0.8 | The level of expressed mRNA in the presence of chemical substance/The level of expressed mRNA in the absence of chemical substance (yeast gene YNL156C, cultured two hours with substance): 1.6 | The level of expressed mRNA in the presence of chemical substance/The level of expressed mRNA in the absence of chemical substance (yeast gene YNL217W, cultured two hours with the substance): 2.1 | The level of expressed mRNA in the presence of chemical substance/The level of expressed mRNA in the absence of chemical substance (yeast gene YNL234W, cultured two hours with substance): 1.7 | The level of expressed mRNA in the presence of chemical substance/The level of expressed mRNA in the absence of chemical substance (yeast gene YNL281W, cultured two hours with substance): 1.7 | The level of expressed mRNA in the presence of chemical substance/The level of expressed mRNA in the absence of chemical substance (yeast gene YNL305C, cultured two hours with substance): 1.3 | The level of expressed mRNA in the presence of chemical substance/The level of expressed mRNA in the absence of chemical substance (yeast gene YNR068C, cultured two hours with substance): 1.7 | The level of expressed mRNA in the presence of chemical substance/The level of expressed mRNA in the absence of chemical substance (yeast gene YOL032W, cultured two hours with substance): 1.4 | The level of expressed mRNA in the presence of chemical substance/The level of expressed mRNA in the absence of chemical substance (yeast gene YOL036W, cultured two hours with substance): 1.2 | The level of expressed mRNA in the presence of chemical substance/The level of expressed mRNA in the absence of chemical substance (yeast gene YOL047C, cultured two hours with substance): 1.4 | The level of expressed mRNA in the presence of chemical substance/The level of expressed mRNA in the absence of chemical substance (yeast gene YOL071W, cultured two hours with substance): 0.9 | The level of expressed mRNA in the presence of chemical substance/The level of expressed mRNA in the absence of chemical substance (yeast gene YOL082W, cultured two hours with substance): 1.5 | The level of expressed mRNA in the presence of chemical substance/The level of expressed mRNA in the absence of chemical substance (yeast gene YOL083W, cultured two hours with substance): 1.4 | The level of expressed mRNA in the presence of chemical substance/The level of expressed mRNA in the absence of chemical substance (yeast gene YOL117W, cultured two hours with substance): 1.7 | The level of expressed mRNA in the presence of chemical substance/The level of expressed mRNA in the absence of chemical substance (yeast gene YOL131W, cultured two hours with substance): 1.5 | The level of expressed mRNA in the presence of chemical substance/The level of expressed mRNA in the absence of chemical substance (yeast gene YOL150C, cultured two hours with substance): 1.0 | The level of expressed mRNA in the presence of chemical substance/The level of expressed mRNA in the absence of chemical substance (yeast gene YOL162W, cultured two hours with substance): 0.9 | The level of expressed mRNA in the presence of chemical substance/The level of expressed mRNA in the absence of chemical substance (yeast gene YOR019W, cultured two hours with substance): 1.4 | The level of expressed mRNA in the presence of chemical substance/The level of expressed mRNA in the absence of chemical substance (yeast gene YOR197W, cultured two hours with substance): 0.6 | The level of expressed mRNA in the presence of chemical substance/The level of expressed mRNA in the absence of chemical substance (yeast gene YOR215C, cultured two hours with substance): 1.8 | The level of expressed mRNA in the presence of chemical substance/The level of expressed mRNA in the absence of chemical substance (yeast gene YPL087W, cultured two hours with substance): 0.6 | The level of expressed mRNA in the presence of chemical substance/The level of expressed mRNA in the absence of chemical substance (yeast gene YPL196W, cultured two hours with substance): 1.5 | The level of expressed mRNA in the presence of chemical substance/The level of expressed mRNA in the absence of chemical substance (yeast gene YPL206C, cultured two hours with substance): 0.7 | The level of expressed mRNA in the presence of chemical substance/The level of expressed mRNA in the absence of chemical substance (yeast gene YPL222W, cultured two hours with substance): 1.2 | The level of expressed mRNA in the presence of chemical substance/The level of expressed mRNA in the absence of chemical substance (yeast gene YPR023C, cultured two hours with substance): 1.1 | The level of expressed mRNA in the presence of chemical substance/The level of expressed mRNA in the absence of chemical substance (yeast gene YPR151C, cultured two hours with substance): 1.3
